Tested on: Lrg1/TGFβ1 induced Smad5 phosphorylation
Experiment: TGFβ-induced Smad5 phosphorylation in Lrg1 over-expressing GPNT endothelial cells
Format: cell-based, rat
Conditions: 5 ng/ml TGFβ, co-treatment
Excerpt: We next established whether we could block endothelial Smad5 phosphorylation induced by TGFβ with either an anti-Lrg1 antibody or by peptide sequences derived from Lrg1. Peptides derived from the leucine-rich repeat regions of the Lrg1 sequence (L1-24 and L169-192 of Appendix 2 (SEQ ID NOS:3-4) or L94-117 and L262-285 of Appendix 3 (SEQ ID NOS:3-4)), which are believed to be involved in protein-protein interactions, and from the highly conserved leucine-rich C-terminal domain (L227-252 of Appendix 2 (SEQ ID NO:5) or L320-345 of Appendix 3 (SEQ ID NO:5)) were generated (Appendix 2). […] Treatment of control cells with 5 ng/ml TGFβ results in a significant increase in Smad5 phosphorylation.

KMFSQNDTRCAGPEAVKGQTLLAVAK (listed as Homo sapiens) [L227-252]
effect on Smad5 phosphorylation: dramatic inhibitory effect | effect on Smad5 phosphorylation (listed as Lrg1 blocking peptide derived from the C-terminus): inhibits

LDMLDLSNNSLASVPEGLWASLGQ (listed as Homo sapiens) [L169-192, Peptide from a leucine-rich repeat region of human Lrg1]
effect on Smad5 phosphorylation: partial effect

LQELHLSSNGLESLSPEFLRPVPQ (listed as Homo sapiens) [L1-24, Peptide from a leucine-rich repeat region of human Lrg1]
effect on Smad5 phosphorylation: no effect

Source: patent US9708397B2, “Treatment of vasculoproliferative conditions with Lrg1 antagonists” (UCL Business PLC, priority 2010, dated 2017)
